# Source: US20240197928A1, “SODIUM-DEPENDENT GLUCOSE TRANSPORTER 2 AS A DIAGNOSTIC AND THERAPEUTIC TARGET FOR PRE-MALIGNANT LESIONS” (THE REGENTS OF THE UNIVERSITY OF CALIFORNIA, priority 2019, published 2024)
# How the values were obtained:
# SGLT2 = SGLT2 (Homo sapiens, UniProt P31639); details: reference 39; cited from earlier work
# [1] = system: lung tumors in KPluc mice; test: Therapeutic trials in the KPluc genetically engineered mouse model of LADC; details: vs placebo
# [2] = system: patient-derived xenografts of human LADC; test: Therapeutic trial in patient-derived xenografts of human LADC; assay type: in vivo, NSG mice
# Excerpt: Patient-derived xenografts. The tumor samples were obtained from surgically resected specimens after informed consent under the UCLA Lung SPORE (PDX #004 and #011) or the Long Beach Memorial Hospital Institutional Review Board protocol (PDX #013). One of the PDXs (#186) was purchased from the Jackson laboratories. PDXs were established and passaged in NSG mice. NSG mice were procured from the UCLA Radiation Oncology breeding colony. For each mouse, two small pieces of tumor tissue (4 mm^3) were implanted subcutaneously in the flank regions.
# Patient-derived xenografts. The mice were randomized in two therapeutic groups (same as for the trials in GEMMs): placebo and canagliflozin (30 mg/kg per day) The number of mice per group was four for PDX #011, eight for PDX #013, three for PDX #004, and five for PDX #186; each mouse was inoculated with two tumors (one tumor on each flank). Some of the tumors of PDX #011 developed soft tissue metastases in the axillary regions, and these were counted as separate tumors. Overall, 38 tumors were included in the placebo and 39 tumors in the canagliflozin group. […] The tumor volumes at 2 weeks were counted as final tumor volumes.
# Mice were imaged by Me4FDG and FDG PET/CT before treatment and 2 weeks after starting treatment. […] The mice were sacrificed, and the tumors were analyzed after 1 month of treatment. […]
# [3] = system: patient-derived xenografts of human LADC; test: Me4FDG and FDG microPET in PDXs before and 2 weeks after the beginning of treatment; assay type: in vivo, NSG mice; details: canagliflozin 30 mg/kg per day
# Procedure: For the microPET in PDXs, a subset of the mice (PDXs #004, #013, and #186) received both Me4FDG and FDG PET scans the day before and 2 weeks after the beginning of treatment to evaluate the response of glucose transporter activity to the treatment.
# The animals were anesthetized with 1.5% (v/v) isoflurane in oxygen, were given a dose of 100 μCi of Me4FDG or FDG via tail vein injection, and were maintained under anesthesia for 1 hour of unconscious uptake. The mice were then immobilized on the imaging bed and received a 10-min static PET scan followed by a CT scan. Each mouse received two different PET scans with the two tracers (Me4FDG and FDG) on consecutive days to allow for tracer decay. The equipments used were Focus 220 microPET scanner (Concorde Microsystems) and Inveon microPET scanner (Siemens) for the microPET scans and CrumpCAT (UCLA Crump Institute) for the microCT.
# The PET data were analyzed with AMIDE software version 1.0.4 (amide.sourceforge.net/) (55). […] The percentage of injected dose for each ROI was calculated by dividing the measured activity in the ROI by the total injected dose, as measured from the PET image by designing an ROI encompassing the whole mouse. […] Briefly, we evaluated the background signal for each mouse by designing a ROI corresponding to the normal lung. We then calculated the CNR for each nodule by using the following formula (31)
compound,measurement,setting,value
Cc1ccc([C@@H]2O[C@H](CO)[C@@H](O)[C@H](O)[C@H]2O)cc1Cc1ccc(-c2ccc(F)cc2)s1 [canagliflozin],effectiveness as SGLT2 inhibitor compared with dapagliflozin,SGLT2,more effective SGLT2 inhibitor than dapagliflozin
same,Tumor burden estimated by bioluminescence imaging (BLI),"[1]; 30 mg/kg per day oral gavage from 2 weeks after tumor induction, P<0.001",significantly lower
same,onset of tumors (BLI signal up to week 8),"[1]; 30 mg/kg per day oral gavage, P<0.001",significantly delayed
same,tumor burden by histological analysis of the lungs and measurement of tumor area,"[1]; at 8 weeks and in the survival cohort, P<0.05",significantly lower tumor burden
same,mouse survival,"[1]; treated until death, n=15 per group, P=0.0003",significantly prolonged
same,Ki67 proliferation rate in solid LADCs,[1],not in solid LADCs
same,Ki67 proliferation rate in premalignant lesions,[1]; P=0.001,significantly lower
same,final tumor volumes lower than the control mice,"[2]; 30 mg/kg per day oral gavage for 1 month, four PDXs, P=0.003",about 47%
same,"geometric mean ratio of final tumor volumes, treated vs control","[2]; 95% confidence interval 0.36 to 0.80, P=0.003, adjusted for trial and mouse random effects",0.53
same,FDG signal from day 0 to day 14,[3],did not significantly change
same,Me4FDG uptake from day 0 to day 14,[3]; P<0.001,significantly reduced
